We go through one compound from US20210069295A1, “GALECTINS CONTROL MTOR IN RESPONSE TO ENDOMEMBRANE DAMAGE AND PROVIDE A MECHANISM AND TARGET FOR THE TREATMENT OF AUTOPHAGY-RELATED DISEASES” (STC. UNM, priority 2017, published 2021).

Experiment [1] has as its system TFEB. Nature of the experiment: TFEB nuclear translocation by high-content microscopy in HeLa cells. Type of experiment: cell-based. As to conditions: 1 h full medium. How it is done:
(A) Dose-response analysis of mTOR activity in HEK293T cells treated with glycyl-L-phenylalanine 2-naphththylamide (GPN) in full medium for 1 h. mTOR activity was monitored by inununoblotting analysis of S6K1 (T389) and ULK1 (S757) phosphorylation (phosphorylated S6K (T389) and ULK1 (S757) relative to total S6K and ULK1, respectively). (B) Analysis of mTOR activity (as in A) after GPN washout. HEK293T cells were treated with 100 μM GPN for 1 h followed by 1 h washout in full medium. Data, means±SEM (n=3), **p<0.01, ANOVA. (C) Analysis of mTOR activity (as in A) in HEK293T cells treated with increasing doses of silica in full medium for 1 h. (D) HEK293T cells were treated with lysosomal damaging agents (LLOMe, Leu-Leu-OMe) for 1 h in full medium and status of acidified organelles assessed by quantifying LysoTracker Red DND-99 puncta using automated high-content imaging and analysis (HC). […] Data, means±SEM, n≥3 independent experiments (500 primary objects counted per well; ≥5 wells/sample per each experiment), **p<0.01, ANOVA. […] Human peripheral blood monocyte derived macrophages were treated with 100 μM GPN in full medium or starved in EBSS for 1 h, and mTOR activity measured as in A. None-treated cells were as control (Ctrl). […] Data, means±SEM, n≥3 independent experiments (500 primary objects counted per well; ≥5 wells/sample per each experiment) **p<0.01, ANOVA. […]

Experiment [2] relates to bone marrow-derived macrophages (BMMs). In words: LysoTracker Red DND-99 staining in bone marrow-derived macrophages (BMMs). The settings on record: GPN 400 μM or LLOMe, 1 h. The experiment is classed as cell-based, murine.

Peptide text beside a SMILES is read from it.

For the compound `NCC(=O)N[C@@H](Cc1ccccc1)C(=O)Nc1ccc2ccccc2c1` [GPN, glycyl-L-phenylalanine 2-naphththylamide] (HELM PEPTIDE1{G.F.[c1ccc2cc(N[*:1])ccc2c1]}$$$$V2.0), in experiment [1], the TFEB nuclear translocation entry is on record as “translocated to the nucleus from the cytoplasm”. Moreover, the “LysoTracker Red DND-99 staining in BMMs (lysosomal damage)” value in experiment [2] is “reduced LysoTracker Red DND-99 staining”.
